Source: patent US6040149A, “Assay for identifying agents which act on the ceramide-activated protein kinase, kinase suppressor of ras, and methods of using said agents” (priority 1997, dated 2000)

Key:
Raf-1 [1] = assay: Raf-1 activity after co-expression with KSR in COS-7 cells; assay type: cell-based, human (Raf-1 expressed in COS-7 cells)
Description: Some studies used untagged KSR (n=4) and yielded identical results. At 60 hours post-transfection, cells were lysed with RIPA buffer (NP-40 buffer containing 0.1% SDS and 0.1% deoxy cholate). […] […]. The samples were boiled for 5 min, resolved with SDS-PAGE (7.5%) and autoradiographed.
[…]. After 30 min, the reaction was stopped by addition of Laemmli sample buffer and phosphorylated MBP were resolved by 15% SDS-PAGE, prior to autoradiography.
; a kind gift of Dr. Natalie Ahn) or 1.25 μg recombinant human MEK1 (Santa Cruz), 0.625 μg recombinant human ERK1 (UBI) and myelin basic protein (MBP). After 20-30 min, the reaction was stopped by addition of SDS sample buffer. […]

[2] = test system: ceramide-activated protein kinase; assay: EGFR peptide phosphorylation by kinase in A-431 microsomal membranes / postnuclear supernatant; assay type: biochemical, human (A-431 epidermoid carcinoma cells)
Description: Kinetics of ^32 Pi incorporation into the EGFR peptide. […] The reaction was initiated by addition of 50 μl of [γ-^32 P]ATP (150 μM final concentration) and terminated by addition of 50 μl of 0.5 M ATP in 90% (vol/vol) formic acid. Samples were spotted on phosphocellulose paper, washed with 1 M acetic acid/4 mM pyrophosphate, and ^32 P incorporation was measured by liquid-scintillation counting, as described. A boiled protein blank was subtracted from each data value. The data (means) represent duplicate samples from one of two similar experiments. […]
Kinetics of ceramide-induced ^32 Pi incorporation into EGFR peptide. Peptide phosphorylation was done as described in FIG. 2 in the absence (.smallcircle.) or presence (.circle-solid.) of 0.5 μM C8 -ceramide. Phosphorylated peptide was resolved by HPLC. Values (means) represent data from three experiments.
Concentration-dependence of ceramide-induced ^32 Pi incorporation into EGFR peptide. Peptide phosphorylation reactions were done as described for FIG. 2, for 2 minutes, using various concentrations of ceramide (0.001-3 μM). Phosphorylated peptide was resolved by HPLC. Values (means) represent data from three experiments. […]
Phosphorylation was initiated at 22° C. by addition of 50 μl of [γ-^32 P] ATP (150 μM final concentration; 4000 dpm/pmol). For studies with lipid activators, ceramide and other lipids were dried under N2 and resuspended in the kinase assay buffer by bath sonication for 2 minutes at 37° C.
Phosphorylated peptide was quantified by two separate methods. For initial studies, samples were spotted on phosphocellulose paper, washed in 1 M acetic acid/4 mM pyrophosphate and subjected to liquid scintillation counting, according to methods well known to those skilled in the art. Values obtained from a boiled blank or a sample lacking peptide were subtracted from each determination. Alternatively, HPLC was done according to methods well known to those skilled in the art. For these studies, samples were first applied to a C18 Sep-Pak cartridge and eluted with 99.9% acetonitrile/0.1% trifluoroacetic acid. The eluates were lyophilized, resuspended in 6 M guanidine hydrochloride/200 mM Tris, pH 8.5 and applied to a C18 reverse-phase column (Dynamax, 4.6 mm i.d., Rainin, Woburn, Mass.). The peptide was eluted with a linear gradient (1% per minute) of acetonitrile at a flow rate of 1 ml/minute and was detected by measuring the Cerenkov radiation associated with 1-ml fractions.

[3] = test system: ceramide-activated protein kinase; assay: Ceramide-activated protein kinase activity (EGFR peptide) in EL-4 cell fractions; conditions: 10 nM to 1 μM
Description: Effect of IL-1β on ceramide-activated protein kinase activity. […] Homogenates were centrifuged at 500×g for 5 minutes to remove nuclei and at 200,000×g for 30 minutes to prepare microsomal membranes. Membranes were resuspended into homogenizing buffer (2.2 μg membrane protein μl^-1). For assay of kinase activity, the reaction mixture contained 20 μl of microsomal membrane, 40 μl EGFR peptide (4 mg ml^-1 in 25 mM Hepes, pH 7.4) and 100 μl buffer (50 mM HEPES, pH 7.4, 20 mM MgCl2). Phosphorylation was initiated at 22° C. by addition of 40 μl [γ-^32 P] ATP (100 μM final concentration) and terminated at the indicated times by addition of 40 μl of 0.5 M ATP in 90% formic acid. Phosphorylated peptide was eluted from a C18 Sep pak cartridge (Millipore), lyophilized, and resolved by C18 reverse phase HPLC using a linear gradient of acetonitrile. […] All assays were performed under conditions determined as linear for time and enzyme concentration. Enzyme activity was determined from the percent conversion of substrate to product and the specific radioactivity of [γ-^32 P] ATP. […] Values (mean±range) represent duplicate determinations from two experiments.
Activity was measured by the transfer of ^32 P from the γ-position of ATP to EGFR peptide (AA 663-681 of the EGFR). The effect of IL-1β on kinase activity was determined using microsomal membranes derived from cells stimulated with IL-1β.

Raf-1 [4] = assay: Raf-1 phosphorylation in intact HL-60 cells; assay type: cell-based, human (HL-60 cells); conditions: TNF 1 nM; ceramide; sphingomyelinase 10 mU/ml
Description: To examine this possibility, intact HL-60 cells were metabolically labeled with ^32 P-orthophosphate for 4 hr followed by stimulation with TNF for the indicated times (FIG. 20A). […] Raf-1 proteins were resolved by SDS-PAGE and autoradiographed.
FIG. 20A--300×10^6 cells were resuspended at 37° C. in 15 ml of serum-free phosphate-free RPMI medium ([…]) containing 6 mCi ^32 P-orthophosphate. After […], cells were resuspended into the same buffer without radiolabel (5×10^7 /point) and stimulated with TNF (1 nM). At the indicated times, ice-cold serum-free phosphate-free RPMI was added and cells were homogenized as described in FIG. 17 in RIPA lysis buffer. Cell debris was removed by centrifugation at 700×g for 5 min. […] After SDS-PAGE, Raf-1 was transferred to an Immobilon PVDF (Millipore) membrane according to the vendor's instructions. […] The data (CPM/Raf protein) are presented as fold of control and represent one of three studies performed in triplicate.

Raf-1 [5] = assay: Kinase activity of immunoprecipitated Raf-1 toward MEK1 after HL-60 cell stimulation; assay type: cell-based, human (HL-60 cells)
Description: Recovery of MEK1 was monitored by western blot (Bottom Panel). Identical results were obtained with cells stimulated for 5 min with TNF.
Recovery of MEK1 was monitored by western blot (Bottom Panel).
These studies indicate that Raf-1 is a component of the sphingomyelin pathway mediating TNF action.
MEK1 autophosphorylation was for 45 min. An autoradiogram of MEK1 phosphorylation (top panel) and recovery of MEK1 protein by western blot (bottom panel) are shown. For western blot, proteins separated by SDS-PAGE were electrotransferred to an Immobilon PVDF membrane at 12 volts overnight at 4° C. Membranes were then blocked with 2% BSA in TBS [20 mM Tris, pH 7.6, 137 mM NaCl] for 1 hr and washed with TBST (TBS containing 0.2% Tween-20).

[6] = test system: ceramide-activated protein kinase; conditions: ceramide 0.001 to 3 μM, of the control, ref. [40]; cited from earlier work
[7] = test system: ceramide-activated protein kinase; conditions: treatment of intact cells; literature; cited from earlier work
Raf-1 [8] = assay: Activation of Raf-1 by KSR in vitro (MEK1 phosphorylation)

| Substance | Raf-1 activation in COS-7 cells co-expressing KSR (Raf-1 [1]) | duration of stimulation ([2]; 0.5 μM ceramide) | onset of stimulation of EGFR peptide phosphorylation ([2]; 0.5 μM ceramide) [s] | increase in kinase activity ([2]; 0.5 μM ceramide, by 30 s) [fold] | lowest effective concentration ([2]; 2 minutes of stimulation) [nM] | EGFR peptide phosphorylation, fold of control ([2]; 2 minutes of stimulation, maximal effect for ceramide at 1 μM) | EC50 ([2]; 2 minutes of stimulation, read-out: ED50 for EGFR peptide phosphorylation) [nM] | concentration inducing maximal phosphorylation ([2]; EGFR peptide phosphorylation) [µM] | lowest effective concentration ([2]; EGFR peptide phosphorylation, A-431) [nM] | effect on EGFR peptide phosphorylation ([2]; words) | enhancement of kinase activity, of control [3] | Raf-1 phosphorylation in intact HL-60 cells (Raf-1 [4]) | effect on kinase activity of Raf-1 toward MEK1 (Raf-1 [5]) | maximum enhancement of kinase activity [6] | enhancement of CAP kinase autophosphorylation / activity [7] | KSR-dependent Raf-1 activity toward MEK1 in vitro (Raf-1 [8]) | activation of Raf-1 by ceramide in the absence of KSR (Raf-1 [8]) |
| --- | --- | --- | --- | --- | --- | --- | --- | --- | --- | --- | --- | --- | --- | --- | --- | --- | --- |
| Raf-1(T268V) | as effectively as wild type Raf-1 | – | – | – | – | – | – | – | – | – | – | – | – | – | – | – | – |
| Raf-1(T269V) | not activated | – | – | – | – | – | – | – | – | – | – | – | – | – | – | – | – |
| ceramide | – | at least 15 minutes | ≤ 30 | 2 | 1 | 2.1 fold of control | ~30 | 1 | 1 | similarly effective | 1.5-2.5 of control | similarly induced Raf-1 phosphorylation | similarly enhanced activity toward MEK1 | two-fold | 5-10 fold | markedly enhanced | not stimulated |
